Measured values as given in patent publication EP0126580B1 (priority 1983, dated 1984).

Settings: rat, in vivo

C[n+]1ccccc1/C=N/O [2-PAMCl, 2-pralidoxime chloride]
lethality: fatal to all rats | time in which the blood concentration drops below therapeutic level (TL): 2 to 3 h | time therapeutic plasma drug level maintained: 2-1/4 hours | time to death after injection: ≤ 30 min | blood drug level achieved (im): 20000 ng/mL
